Measurements: patent US20050130909A1 (priority 2002, published 2005)
Values joined by “and” are separate entries in the source; they are usually repeats but may differ in a detail not shown here. Identical values can stand only once. Like-named read-outs stand apart in the source and are kept apart here.

Tests used:
staphylococci = test: In vitro antibacterial activity; assay type: cell-based; conditions: including some teicoplanin-resistant strains
[1] = Stability of dalbavancin in plasma; assay type: in vitro ADME, human; conditions: 1.5 and 90 μg/ml
bovine albumin = bovine albumin (Bos taurus, UniProt P02769); test: Protein binding by ITC; conditions: 25° C.; pH 7.4
Chain of bovine albumin (P02769 25-607): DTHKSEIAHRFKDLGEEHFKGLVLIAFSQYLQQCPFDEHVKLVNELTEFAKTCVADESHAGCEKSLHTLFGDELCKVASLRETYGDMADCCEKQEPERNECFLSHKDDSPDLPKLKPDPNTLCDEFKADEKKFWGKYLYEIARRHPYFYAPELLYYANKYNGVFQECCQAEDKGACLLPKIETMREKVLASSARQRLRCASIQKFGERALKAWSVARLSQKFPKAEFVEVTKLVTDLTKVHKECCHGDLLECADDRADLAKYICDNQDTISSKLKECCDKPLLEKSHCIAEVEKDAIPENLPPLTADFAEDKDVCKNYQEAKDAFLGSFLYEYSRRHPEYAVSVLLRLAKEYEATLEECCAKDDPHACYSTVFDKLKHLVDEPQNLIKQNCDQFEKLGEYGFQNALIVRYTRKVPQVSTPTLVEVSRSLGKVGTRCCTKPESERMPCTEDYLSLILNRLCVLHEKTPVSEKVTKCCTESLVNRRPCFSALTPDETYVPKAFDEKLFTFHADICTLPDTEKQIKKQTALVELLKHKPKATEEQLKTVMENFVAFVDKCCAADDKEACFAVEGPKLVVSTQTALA

[2] = test system: skin and soft tissue infections (SSTI); test: Phase II SSTI trial: clinical response (success = cure or improvement); assay type: in vivo, human; conditions: for Clinical success rate at FU, patients with MRSA: MITT population; for Clinical success rate, exploratory subanalysis: patients with deep or complicated SSTI at baseline
Experimental: (§1) This randomized, controlled study evaluated the safety and efficacy of two dose regimens of dalbavancin.
(§2) There were 62 patients randomized into the study; all received at least one dose of study medication. Four study populations were evaluated for safety and efficacy and were defined as follows: The intent-to-treat (ITT) population included all patients who received at least one dose of study drug (all randomized study subjects).
The effectiveness of the three treatment regimens was determined by assessing the patients' clinical response and the documented or presumed microbiological responses. The primary efficacy endpoint was clinical response at the follow-up visit for the clinically evaluable population. Clinical response, for both EOT and FU visits, was categorized as success (cure or improvement) or failure (including indeterminate results). Patients classified as successes must not have received additional systemic antibacterial treatment for their infection. Failure was defined as persistence of one or more local or systemic signs and symptoms of SSTI such that treatment with new or additional systemic antibacterial agents was required for the SSTI.

human α-glycoprotein = test: Protein binding by ITC; conditions: for Apparent binding affinity Ka: pH 7.4; for Calculated percent Binding to Human α-glycoprotein: protein […]10^−5 M assumed
[3] = test system: Gram-positive isolates, including MRSA; test: Dalbavancin MIC of trial isolates; assay type: cell-based; conditions: isolates that persisted after treatment
[4] = Phase II SSTI trial: dalbavancin plasma concentrations; assay type: in vivo, human
[5] = test system: Miscellaneous streptococcus species; test: Phase II SSTI trial: microbiological response by pathogen; assay type: in vivo, human; conditions: MITT at FU
Experimental: as §1, §2
(§3) Microbiological outcome, a secondary efficacy variable, was assessed in the subpopulation of patients who had microbiologically documented SSTI (i.e., at least one identified baseline pathogen). A microbiologic response was assessed for each Gram-positive pathogen identified at baseline (i.e., eradication, presumed eradication, persistence, presumed persistence). For patients for whom follow-up cultures were not performed, the microbiologic responses for baseline pathogens were presumed on the basis of the clinical response. Microbiologic response by patient at the EOT and FU visits was graded as success (i.e., all Gram-positive organisms eradicated or presumed eradicated) or failure (i.e., at least one Gram-positive organism persisted or presumed to have persisted, multiple pathogens with partial eradication). At both the EOT and FU visits, colonization and superinfection were assessed. At the FU visit, a patient's bacteriological response could also include recurrence.

S. aureus = test: as above; assay type: in vivo, human; conditions: for Success rate by pathogen: All S. aureus: MITT at FU; for S. aureus eradication rate: microbiologically-evaluable population at FU
Experimental: as §1, §2, §3

[6] = test system: Methicillin-sensitive S. aureus; test: as above; assay type: in vivo, human; conditions: MITT at FU
Experimental: as §1, §2, §3

[7] = ESI-MS analysis of multimers in solution
Experimental: Experiments were performed using an Applied Biosystem API III+ mass spectrometer equipped with a TurboIonSpray source, a Triple Quadrupole analyzer, operating in positive ion mode.
The mass spectra were obtained in electrospray positive mode on a Finnigan LCQ^Deca ion trap instrument previously tuned and calibrated in electrospray mode using Ultramark 1621, caffeine and MRFA (L-metionyl-arginyl-phenilalanyl-arginine).

[8] = test system: N,N′-diacetyl-Lys-D-Ala-D-Ala; test: ITC of binding to tri-peptide cell-wall analog, with and without HSA
Experimental: Peptide concentrations were determined by weight.
Trans. R. Soc. Lond. Ser. A-Math. Phys. Eng. […] Wiley, (1998) p 103-111; and Cooper, A., Curr. Opin. Chem. Biol. (1999) 3, 557-563.

[9] = Safety assessments in healthy subjects; assay type: in vivo, human
Experimental: Adverse events were recorded and assessed for severity and relationship to study drug. Laboratory data (chemistry panel, CBC with differential, urinalysis) were collected and assessed for changes from baseline and out-of-range values. ECG, physical examination, and vital signs were obtained, and changes from baseline were assessed.

[10] = AE possibly related, upper limit of normal 40 IU/L
[11] = single 1000 mg IV dose, healthy subjects
[12] = six healthy volunteers, single 1000 mg IV

## CN[C@H]1C(=O)N[C@@H]2Cc3ccc(cc3)Oc3cc4cc(c3O[C@@H]3O[C@H](C(=O)O)[C@@H](O)[C@H](O)[C@H]3NC(=O)CCCCCCCCC(C)C)Oc3ccc(cc3Cl)[C@@H](O)[C@@H]3NC(=O)[C@H](NC(=O)[C@@H]4NC(=O)[C@@H](NC2=O)c2cc(cc(O)c2Cl)Oc2cc1ccc2O)c1ccc(O)c(c1)-c1c(O[C@H]2O[C@H](CO)[C@@H](O)[C@H](O)[C@@H]2O)cc(O)cc1[C@@H](C(=O)NCCCN(C)C)NC3=O [Dalbavancin]
staphylococci
  In vitro activity relative to teicoplanin and vancomycin: more active in vitro against staphylococci (including some teicoplanin-resistant strains) than teicoplanin and vancomycin
[1]; 24 hours at room temperature
  Stability in processed plasma samples: stable after 24 hours at room temperature
[1]; three cycles of freeze-thaw
  Stability in human plasma, freeze-thaw: stable after three cycles of freeze-thaw treatment
Bovine albumin
  Apparent binding affinity Ka: 1.38 (±0.14) ×10^5 M^−1
[2]; Clinically evaluable at EOT, single-dose 1100 mg
  Clinical success rate: 13/16 (61.5) %
[2]; Clinically evaluable at EOT, two-dose 1000/500 mg
  Clinical success rate: 16/17 (94.1) %
[2]; ITT at EOT, single-dose dalbavancin 1100 mg IV day 1
  Clinical success rate: 15/20 (75.0) %
[2]; ITT at EOT, two-dose dalbavancin 1000 mg day 1 + 500 mg day 8 IV
  Clinical success rate: 19/21 (90.5) %
[2]; ITT at FU, single-dose 1100 mg
  Clinical success rate: 12/20 (60.0) %
[2]; ITT at FU, two-dose 1000/500 mg
  Clinical success rate: 19/21 (90.5) %
[2]; MITT at EOT, single-dose 1100 mg
  Clinical success rate: 10/14 (71.4) %
[2]; MITT at EOT, two-dose 1000/500 mg
  Clinical success rate: 12/13 (92.3) %
[2]; MITT at FU, single-dose 1100 mg
  Clinical success rate: 7/14 (50.0) %
[2]; MITT at FU, two-dose 1000/500 mg
  Clinical success rate: 12/13 (92.3) %
[2]; single-dose dalbavancin
  Clinical success rate at FU, patients with MRSA: 50%
  Clinical success rate, exploratory subanalysis: 58.3%
[2]; two-dose dalbavancin
  Clinical success rate at FU, patients with MRSA: 80%
  Clinical success rate, exploratory subanalysis: 93.8%
[2]; Microbiologically evaluable at EOT, single-dose 1100 mg
  Clinical success rate: 10/13 (76.9) %
[2]; Microbiologically evaluable at EOT, two-dose 1000/500 mg
  Clinical success rate: 10/11 (90.9) %
[2]; Microbiologically evaluable at FU, single-dose 1100 mg
  Clinical success rate: 6/11 (54.5) %
[2]; Microbiologically evaluable at FU, two-dose 1000/500 mg
  Clinical success rate: 10/11 (90.9) %
Human α-glycoprotein; 25° C.
  Apparent binding affinity Ka: 1.84 (±0.36) ×10^5 M^−1
Human α-glycoprotein; 37° C.
  Apparent binding affinity Ka: 4.8 (±2.3) ×10^5 M^−1
Human α-glycoprotein; antibiotic 1 μM
  Calculated percent Binding to Human α-glycoprotein: 73.0%
Human α-glycoprotein; antibiotic 10 μM
  Calculated percent Binding to Human α-glycoprotein: 68.2%
Human α-glycoprotein; antibiotic 100 μM
  Calculated percent Binding to Human α-glycoprotein: 26.2%
Human α-glycoprotein; antibiotic 165 μM
  Calculated percent Binding to Human α-glycoprotein: 16.9%
Human α-glycoprotein; antibiotic 250 μM
  Calculated percent Binding to Human α-glycoprotein: 11.4%
Human α-glycoprotein; antibiotic 500 μM
  Calculated percent Binding to Human α-glycoprotein: 5.9%
[3]
  Change in dalbavancin MIC of isolates that persisted: no change in dalbavancin MIC
[4]; additional week, with an additional dose of 500 mg IV on day 8
  Dalbavancin plasma level maintained: greater than 20 mg/l
[4]; single-dose regimen 1100 mg IV, Study day 8
  Mean dalbavancin plasma concentration (mean±SD): 31.1 ± 7.1 mg/L
[4]; single-dose regimen, Study day 10
  Mean dalbavancin plasma concentration (mean±SD): 25.2 ± 4.8 mg/L
[4]; single-dose regimen, Study day 24
  Mean dalbavancin plasma concentration (mean±SD): 10.2 ± 3.5 mg/L
[4]; through the first week following the first dose
  Dalbavancin plasma concentration, all patients: greater than 20 mg/l
[4]; two-dose regimen 1000/500 mg IV, Study day 8 (prior to the second dose)
  Mean dalbavancin plasma concentration (mean±SD): 30.4 ± 8.2 mg/L
[4]; two-dose regimen, Study day 20
  Mean dalbavancin plasma concentration (mean±SD): 21.2 ± 10.0 mg/L
[4]; two-dose regimen, Study day 34
  Mean dalbavancin plasma concentration (mean±SD): 9.0 ± 4.4 mg/L
[5]; single-dose 1100 mg
  Success rate by pathogen: Miscellaneous streptococcus species: 2/3 (67%)
[5]; two-dose 1000/500 mg
  Success rate by pathogen: Miscellaneous streptococcus species: 4/4 (100%)
S. aureus; single-dose 1100 mg
  Success rate by pathogen: All S. aureus: 5/13 (38%)
S. aureus; two-dose 1000/500 mg
  Success rate by pathogen: All S. aureus: 9/11 (82%)
S. aureus; single-dose dalbavancin
  S. aureus eradication rate: 50%
S. aureus; two-dose dalbavancin
  S. aureus eradication rate: 90%
[6]; single-dose 1100 mg
  Success rate by pathogen: Methicillin-sensitive: 2/7 (29%)
[6]; two-dose 1000/500 mg
  Success rate by pathogen: Methicillin-sensitive: 5/6 (83%)
[7]; 100 μg/mL, ammonium formate 5, 50, 100 mM pH 5, FIGS. 6-8
  Population ratio of multimer to monomer: influence of ionic strength: decrease in dalbavancin multimer to monomer population ratio
[7]; 20, 40, 60, and 80 μg/mL, FIG. 4
  Population ratio of multimer to monomer: influence of concentration: increases with increasing concentration
[7]; dalbavancin 0.1 mg/ml in 8:2 water:isopropanol, teicoplanin 50 and 100 μg/mL in water
  Multimers in solution: indicates the presence of dalbavancin multimers
[7]; pH 2.5 to 5.5, FIG. 5
  Population ratio of multimer to monomer: influence of pH: increases with increasing pH
[8]; 10 ° C., [HSA] 0 μM
  Kass: 920000 M⁻¹ and 685000 M⁻¹ and 624000 M⁻¹ and 670000 M⁻¹
[8]; 10 ° C., [HSA] 0 μM, read-out: Kdiss
  Kd: 1.09 µM and 1.6 µM and 1.49 µM
[8]; 10° C., absence of HSA, read-out: Average Kdiss
  Kd: ~1.4 µM
[8]; 25° C.
  Weakening of binding affinity at HSA plateau relative to absence of HSA: 10-12 ×
[8]; 25 ° C., [HSA] 0 μM
  Kass: 313000 M⁻¹ and 330000 M⁻¹ and 320000 M⁻¹ and 280000 M⁻¹ and 303000 M⁻¹ and 319000 M⁻¹ and 393000 M⁻¹
[8]; 25 ° C., [HSA] 0 μM, read-out: Kdiss
  Kd: 3.57 µM and 3.3 µM and 2.54 µM
[8]; 25° C., absence of HSA (free dalbavancin), read-out: Average Kdiss
  Kd: ~3.1 µM
[8]; 25 ° C., with HSA 34.2 μM
  Kass: 35000 M⁻¹
[8]; 25 ° C., with HSA 34.2 μM, read-out: Kdiss
  Kd: 28.6 µM
[8]; 37° C., absence of HSA, read-out: Average Kdiss
  Kd: ~8.4 µM
[8]; aqueous buffer pH 7.4 containing HSA
  Effect of HSA on solubility of dalbavancin: HSA increased the solubility of dalbavancin
[8]; read-out: Apparent Kdiss, plateau level at high concentrations of HSA (dalbavancin bound to HSA), 25° C., HSA above 35 μM up to 600 μM, FIG. 11
  Kd: ~35 µM
[9]; AE possibly related, upper limit of normal 0.4×10^3/μL
  Eosinophilia, individual subject value: 500 µL⁻¹
[9]; [10]
  Elevated ALT, individual subject value: 46 IU/L and 54 IU/L
  Elevated AST, individual subject value: 42 IU/L
[9]; AE possibly related, upper limit of normal 90 IU/L
  Elevated LDH, individual subject value: 303 IU/L
[9]; single 1000 mg IV
  Post-baseline hematology, chemistry, vital signs, and ECG: No trends were seen
[9]; [11]
  Deaths or serious adverse events: No subject deaths or serious adverse events were reported
  Tolerability: well-tolerated
[9]; [12]
  AEs possibly related to study medication: Three volunteers reported AEs that were possibly related to study medication
  Adverse events, incidence and intensity: All volunteers reported at least one AE, all of mild intensity
